Values after ≈ are worked out from the molar mass of the structure shown.
Columns and labels:
[1] = tested on: collagen-induced arthritis in DBA/1j mice; assay: Mouse Collagen-Induced Arthritis; assay type: in vivo; details: 10 mg/kg/day, once daily for 14 days, oral gavage; arthritic index vs control
Experimental: Seven- to eight-week-old male DBA/1j mice were used for all procedures. Animals were housed in groups of 10, and were maintained at 21° C.±2° C. on a 12-hour light/dark cycle with food and water ad libitum. Complete Freund's adjuvant (CFA) was prepared by emulsifying bovine type II collagen at 4 mg/mL with a 4 mg/mL suspension of Mycobacterium tuberculosis H37Ra in Incomplete Freund's Adjuvant (IFA) (0.85 mL paraffin oil and 0.15 mL mannide monooleate) in a 1:1 (v/v) ratio. All mice were immunised subcutaneously with 200 μg of bovine type II collagen in CFA. 21 days later, all mice were immunised subcutaneously with 100 μg of bovine type II collagen in IFA. The mice started to develop signs and symptoms of arthritis following the ‘booster’ immunisation.
For macroscopic assessment of arthritis, the following signs were monitored in each paw of each mouse three times per week and summed to generate the Arthritic Index (A1) (the maximum A1 for one animal is 16): • 0=no visible effects of arthritis. • 1=oedema and/or erythema of 1 digit. • 2=oedema and/or erythema of 2 digits. • 3=oedema and/or erythema of more than 2 digits. • 4=severe arthritis of entire paw and digits.
Animals were sorted into treatment groups with a mean arthritic index of 2.5 and then dosed once daily for 14 days with compound: by oral gavage for test compounds, or by subcutaneous injection at a dose of 10 mg/kg for the positive control, etanercept. After completion of the experiment, the mice were sacrificed.
The data were analysed by generating an average of the arthritic index across each treatment group. The mean arthritic index was then compared to the arthritic index of control (untreated) animals using the following formula to generate a percentage inhibition of disease.

[2] = Human Hepatocyte Stability; assay type: in vitro ADME; details: pooled human hepatocytes, 1 μM, 60 minute incubation; for half-life at 1 μM: read-out: Human t1/2
Experimental: (§1) Metabolic stability of test compounds was measured by determination of the rate of disappearance of the compound when incubated in the presence of human hepatocytes, a primary source of the most important enzymes (cytochrome P450s) involved in drug metabolism. Study of drug stability in the presence of primary hepatocytes is accepted as a valuable model permitting rapid prediction of in vivo drug stability.
(§2) Human hepatocytes were obtained from a commercial source and viability was assessed using a trypan blue solution prior to use. Test compounds (final concentration 1 μM, 0.1 DMSO, 0.9% acetonitrile) or a marker (diclofenac or diltiazem, final assay concentration 1 μM, 0.1% DMSO, 0.9% acetonitrile) were incubated with pooled hepatocytes for a 60 minute period and samples removed at up to 6 time points and analysed by LC-MS/MS for the presence/amount of test compounds.
(§3) Each compound was incubated for 0, 5, 15, 30, 45, or 60 minutes. The reactions were stopped by the addition of methanol containing an internal standard (1 μM Tolbutamide) at the appropriate time points, mixed and placed at −20° C. for 1 hour to quench and allow protein to precipitate. All samples were centrifuged (2500× g, 20 minutes, 4° C.). The aliquots were analysed using LC-MS/MS. Reactions were performed in duplicate at 37° C.
(§4) Data were processed, and the results plotted as In(concentration) vs. time. The elimination rate constant (slope of the regression line, k) was calculated using the following formula, where C(t) is the concentration at time t and C(0) is the starting concentration:
(§5) The half-life (t1/2) was calculated using the following formula: […]
(§6) The intrinsic clearance (Clint) was calculated using the following formula, where [cell] is the hepatocyte concentration in the assay: […]

human hepatocytes = assay: Human Hepatocyte Stability; assay type: in vitro ADME; details: human hepatocytes
Experimental: as §1, §2, §3, §4, §5, §6

hERG = hERG (Homo sapiens (Human), UniProt Q12809); assay: hERG Ion Channel binding assay (3H astemizole displacement); details: human, membranes of HEK293 cells stably expressing hERG, pH 7.4, probe 3H astemizole (1.5 nM); 30 μM; displacement of 3H astemizole, hERG-HEK293 membranes
hERG, sequence (Q12809 whole entry): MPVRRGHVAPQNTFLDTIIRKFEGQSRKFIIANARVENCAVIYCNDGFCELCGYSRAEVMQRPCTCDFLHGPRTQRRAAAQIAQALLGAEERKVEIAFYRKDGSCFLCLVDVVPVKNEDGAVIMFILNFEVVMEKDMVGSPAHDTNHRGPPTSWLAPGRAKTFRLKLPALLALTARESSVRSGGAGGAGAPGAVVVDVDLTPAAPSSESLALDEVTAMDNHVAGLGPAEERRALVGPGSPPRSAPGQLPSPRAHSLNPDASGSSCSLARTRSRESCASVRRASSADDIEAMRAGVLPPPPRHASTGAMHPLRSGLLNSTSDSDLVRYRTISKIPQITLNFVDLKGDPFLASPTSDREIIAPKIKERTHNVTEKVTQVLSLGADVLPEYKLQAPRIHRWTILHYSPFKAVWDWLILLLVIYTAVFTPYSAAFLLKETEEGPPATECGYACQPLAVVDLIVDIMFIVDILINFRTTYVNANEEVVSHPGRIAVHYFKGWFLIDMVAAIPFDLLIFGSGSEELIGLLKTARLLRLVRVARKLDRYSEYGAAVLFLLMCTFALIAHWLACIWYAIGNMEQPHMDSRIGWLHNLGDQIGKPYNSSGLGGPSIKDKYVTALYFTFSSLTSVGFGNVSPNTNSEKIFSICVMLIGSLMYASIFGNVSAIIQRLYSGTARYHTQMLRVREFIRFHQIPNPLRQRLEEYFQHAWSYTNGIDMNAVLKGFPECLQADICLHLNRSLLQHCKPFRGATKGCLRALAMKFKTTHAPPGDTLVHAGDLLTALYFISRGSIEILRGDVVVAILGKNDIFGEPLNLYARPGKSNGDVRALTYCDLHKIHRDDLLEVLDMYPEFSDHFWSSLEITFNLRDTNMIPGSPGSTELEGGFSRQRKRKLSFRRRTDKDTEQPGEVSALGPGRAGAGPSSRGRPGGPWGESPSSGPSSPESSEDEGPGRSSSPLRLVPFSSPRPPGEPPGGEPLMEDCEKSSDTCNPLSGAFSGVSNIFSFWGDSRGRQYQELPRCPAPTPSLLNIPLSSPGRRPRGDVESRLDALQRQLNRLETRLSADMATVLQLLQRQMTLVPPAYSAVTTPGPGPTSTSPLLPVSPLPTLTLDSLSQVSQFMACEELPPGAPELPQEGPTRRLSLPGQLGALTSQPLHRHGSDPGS
Experimental: (§7) The activity of the compounds against the hERG ion channel was tested using a binding assay in stably transfected Human Embryonic Kidney cells (hERG-HEK293). hERG-HEK293 cells were cultured in MEM medium (Invitrogen)+10% FBS, glutamine and non-essential amino acids at 37° C. To prepare membranes, cells were homogenised on ice, centrifuged at 650×g for 10 minutes at +4° C., and the resulting supernatant centrifuged at 48000×g for 10 minutes at +4° C. The pellet was resuspended in ice-cold 50 mM Tris-HCl buffer, 5 mM KCl (pH 8.5) and stored frozen in aliquots until use.
(§8) For binding assays, membranes were thawed, re-suspended in assay buffer (10 mM HEPES pH 7.4, 0.1% BSA, 5 mM potassium chloride, 0.8 mM magnesium chloride, 130 mM sodium chloride, 1 mM sodium-EGTA, 10 mM glucose) and incubated with ^3H astemizole (1.5 nM), and with or without test compound at 25° C. for 60 minutes. Binding was determined following filtration of the membranes and washing in Tris-HCl buffer by scintillation counting of ^3H astemizole.
(§9) The degree of binding of compounds to the hERG ion channel (%) was obtained by measuring the binding of ^3H astemizole and its displacement by test compound. A value of 0% indicates no binding and a value of 100% indicates complete displacement of the radiolabelled ligand.

hERG ion channel = hERG ion channel (Homo sapiens (Human), UniProt Q12809); assay: as above
hERG ion channel, sequence (Q12809 whole entry): as above
Experimental: as §7, §8, §9

[3] = tested on: Thp1 human monocytic cells; assay: Thp1 Monocyte ATP Production Assay (ATPlite); assay type: cell-based; details: Homo sapiens, THP-1, Thp1 cells, 24 hour incubation, mean of 2 independent experiments
Experimental: In vitro potency of test compounds was determined by incubation with Thp1 human monocytic cells and subsequent determination of Adenosine TriPhosphate (ATP) levels using firefly luciferase.
ATP is present in all metabolically active cells. When cells lose integrity, their ability to synthesise ATP is rapidly lost. […] See, e.g., Kang et al., 2015; Jiang et al., 2013. Levels of ATP can be monitored using a system based on firefly (Photinus pyralis) luciferase (see, e.g., Auld et al., 2009) using commercially available kits. A system known as ATPlite™ was using to measure effects of the test compounds on cellular viability in vitro. This one-step assay system is an adenosine triphosphate (ATP) monitoring system based on the production of light caused by the reaction of ATP from the cells with added luciferase and D-luciferin, as illustrated in the reaction scheme below:
Thp1 cells were plated at 112500 cells per well in 125 μL RPMI-1640 (no glucose) with 1% FBS in 96-well plates. Test compounds were prepared as 100 mM solutions in DMSO. These stock solutions were diluted in DMSO and then diluted 1000× in culture medium (RPMI) before being added directly to the wells so as to give the desired final compound concentration. After a 24 hour incubation at 37° C./5% CO2, ATPLite™ (Perkin Elmer) was added to each well (1:10 v/v, 10 μL). The plate was then incubated at room temperature for 5 minutes and the emitted light was quantified on Viewlux with a measurement time of 0.3 seconds and binning 4×4.
The average results for each test compound were expressed as a percent (%) of the average control value reflecting cell viability. The average values across the concentrations tested were then plotted and the IC50 for was calculated by fitting the data to a 4-parameter IC50 equation using software from Graf it (Erithacus Software). Each experiment was repeated twice and the data are presented as the mean IC50 from both experiments.

[4] = Aqueous solubility in FaSSIF; assay type: physicochemical; details: for solubility at 16 h: kinetic from dmso stock, pH 6.5, 16 hours, room temperature
Experimental: Aqueous solubility was measured by equilibration of compounds with fasted state simulated intestinal fluid (FaSSIF) and quantified spectrophotometrically.
Preparation of blank FaSSIF: 0.21 g of sodium hydroxide (NaOH) pellets, 1.97 g of dihydrogen sodium phosphate (NaH2PO4.2H2O) and 3.09 g of sodium chloride (NaCl) were dissolved in 400 mL of deionised water. The pH was adjusted to 6.5 using 1 M hydrochloric acid and further deionised water added to a final volume of 500 mL.
Preparation of FaSSIF: 0.056 g of SIF Powder (containing sodium taurocholate and lecithin) (Pharses A G) was dissolved in 25 mL of blank FaSSIF and stirred until the powder was completely dissolved. The solution was allowed to stand for 2 hours during which it became opalescent; it was used within 24 hours. The final solution composition was characterised as follows: • Sodium taurocholate: 3 mM • Lecithin: 0.75 mM • Osmolarity: 270±10 mOsmol • pH: 6.5
The optical density was measured at the end of the incubation period for test compounds and a reference used to determine solubility. In brief, two samples were prepared for each determination: a reference sample consisting of a stock solution of test compound in DMSO diluted in system solution (a phosphate free, low absorption buffer) and propanol; and a test sample (prepared in triplicate) consisting of 0.5 mL FaSSIF spiked with test compound at 0.2 mM. Each sample was incubated at room temperature for 16 hours with constant shaking at 250 rpm. At the end of the incubation period, 0.3 mL of each sample was filtered through a pION filter plate (PION, Woburn MA), diluted 1:1 with propanol and scanned using UV spectrophotometry at Amax ([…]) using a Spectra Max Plus—Version 2.1000 (Molecular Devices, Sunnyvale, CA), with pSOL Explorer solubility determination software (pION, Woburn, MA).
FaSSIF solubility was calculated using the following formula:
[formula] • wherein: • “OD” is the optical density; • “Cr” is the concentration of the reference (33.4 μM); and • “molecular weight” is for the test compound (e.g., 381.44 for ABD735).

For C[C@]1(O)CC[C@@H](NS(=O)(=O)c2ccc(-c3ccc(Cl)cc3C#N)cc2)CC1 [HMC-C-01-B], the “% inhibition of disease” value [1] was 26%.
For CC(=O)N1CCC(C(C)(C)S(=O)(=O)c2ccc(-c3ccc(F)cc3F)cc2)CC1 [NASMP-18, 1-(4-(2-((2′,4′-Difluoro-[1,1′-biphenyl]-4-yl)sulfonyl)propan-2-yl)piperidin-1-yl)ethan-1-one], the hepatocyte CLint at 1 μM [2] was 3.8 µL/min/1e6 cells, the half-life at 1 μM [2] was 5.87 h and the “metabolic stability (in words)” value (human hepatocytes) was “exceptionally good stability”. The inhibition at 60 min, 30 µM (hERG) was 14%, the “cardiac safety profile, hERG (in words)” value (hERG ion channel) was “particularly positive profile” and the IC50 ([3]; 8-point concentration range from 100 μM to 100 nM) was 28.5 µM. The solubility at 16 h [4] was 39 µg/mL (≈ 92.5 µM).
For CC(=O)N1CCC(C2(S(=O)(=O)c3ccc(-c4ccc(F)cc4F)cc3)CC2)CC1 [NASMP-21, 1-(4-(1-((2′,4′-Difluoro-[1,1′-biphenyl]-4-yl)sulfonyl)cyclopropyl)piperidin-1-yl)ethan-1-one], the hepatocyte CLint at 1 μM [2] was 13.4 µL/min/1e6 cells, the half-life at 1 μM [2] was 1.74 h and the inhibition at 60 min, 30 µM (hERG) was 1%. The “cardiac safety profile, hERG (in words)” value (hERG ion channel) was “particularly positive profile”, the IC50 ([3]; 9-point concentration range from 10 μM to 10 nM) was 6.1 µM and the “solubility (in words)” value [4] was “particularly good solubility”. For the same molecule, the solubility at 16 h [4] was 71 µg/mL (≈ 169 µM).

Source: US12162836B2, “N-acyl-{4-[(4-aryl-phenyl)sulfonylmethyl]piperidine} compounds and their therapeutic use” (Modern Biosciences Limited, priority 2019, dated 2024)
